# Target: Galectin-3 (Homo sapiens, UniProt P17931)
# Assay: Spectrophotometric Assay
# Method: The inhibitory activity of compounds is determined in competitive binding assays. […] Finally, 25 μL/well of ABTS substrate is added.
# Sequence of Galectin-3 (P17931 whole entry): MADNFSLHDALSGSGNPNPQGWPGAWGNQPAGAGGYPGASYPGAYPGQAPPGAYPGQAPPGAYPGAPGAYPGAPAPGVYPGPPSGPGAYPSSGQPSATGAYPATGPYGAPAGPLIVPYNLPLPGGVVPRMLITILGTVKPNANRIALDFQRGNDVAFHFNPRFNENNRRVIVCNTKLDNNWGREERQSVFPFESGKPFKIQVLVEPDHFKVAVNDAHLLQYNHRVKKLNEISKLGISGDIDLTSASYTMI
row,Compound,IC50
1,"CO[C@@H]1[C@@H](n2cc(-c3cc(F)c(F)c(F)c3)nn2)[C@@H](O)[C@@H](CO)O[C@H]1C(=O)N(c1cc(Cl)cc(Cl)c1)[C@H]1COC[C@@H]1O [US20240124427, Example 4]",72 nM
2,"CO[C@@H]1[C@@H](n2cc(-c3cc(F)c(F)c(F)c3)nn2)[C@@H](O)[C@@H](CO)O[C@H]1C(=O)N(c1cc(Br)cc(C#N)c1)[C@H]1COC[C@@H]1O [US20240124427, Example 7]",83 nM
3,"CO[C@@H]1[C@@H](n2cc(-c3cc(F)c(Cl)c(F)c3)nn2)[C@@H](O)[C@@H](CO)O[C@H]1C(=O)N(c1cc(Br)cc(C#N)c1)[C@H]1COC[C@@H]1O [US20240124427, Example 24]",73 nM
4,"CO[C@@H]1[C@@H](n2cc(-c3cc(F)c(F)c(F)c3)nn2)[C@@H](O)[C@@H](CO)O[C@H]1C(=O)N(c1cc(Br)cc(C#N)c1)[C@@H]1COC[C@H]1O [US20240124427, Example 36]",67 nM
5,"CO[C@@H]1[C@@H](n2cc(-c3cc(F)c(Cl)c(F)c3)nn2)[C@@H](O)[C@@H](CO)O[C@H]1C(=O)N(c1cc(Br)cc(C#N)c1)[C@@H]1COC[C@H]1O [US20240124427, Example 53]",46 nM
6,"CO[C@@H]1[C@@H](n2cc(-c3ccc(Br)c(F)c3F)nn2)[C@@H](O)[C@@H](CO)O[C@H]1C(=O)N(c1cc(Cl)cc(Cl)c1)[C@H]1CNC[C@@H]1O [US20240124427, Example 62]",12 nM
